Reference: patent publication US8962842B2, “2-pyridone antimicrobial compositions” (priority 2010, dated 2015)
Where two headings read alike, the source gives them in different places.

Assay: Mouse pharmacokinetics, intravenous or oral 10 mg/kg (Table 9)
Assay type: in vivo
Settings: mice, plasma; for half-life: read-out: Elimination Half life (converted); for bioavailability: p.o. vs i.v.
Description: Groups of 21 mice were treated with select examples at 10 mg/kg. Mice were treated either intravenously or orally (by gavage). At predetermined time points (0.25, 0.5, 1, 2, 4, 8 and 24 hours), 3 mice were sacrificed and blood samples drawn by cardiac puncture. Plasma was obtained by centrifugation and stored at −80° C. Plasma samples were analyzed by LC-MS for remaining amounts of compounds.

| SMILES | half-life (iv, i.v.) | AUC(0-inf) (iv) | Cmax (iv) | bioavailability (po) | half-life (po, p.o.) | AUC(0-inf) (po) | Cmax (po) |
| --- | --- | --- | --- | --- | --- | --- | --- |
| Cc1c(-c2ccc(N)c(F)c2)ccn2c(=O)c(C(=O)[O-])cc(C3CC3)c12.[K+] [Ex. 2 K salt] | 1.48 h | 1340 ng·h/mL | 2100 ng/mL | 47.8% | 1.51 h | 642 ng·h/mL | 394 ng/mL |
| Cc1c(-c2ccc(N)nc2)ccn2c(=O)c(C(=O)[O-])cc(C3CC3)c12.[K+] [Ex. 21 K salt] | 1.31 h |  | 467 ng/mL |  | 2.11 h | 471 ng·h/mL | 242 ng/mL |
| Cc1c(-c2ccc3[nH]ncc3c2)ccn2c(=O)c(C(=O)[O-])cc(C3CC3)c12.[K+] [Ex. 23 K salt] | 1.16 h | 2040 ng·h/mL | 3430 ng/mL | 85.9% | 0.988 h | 1750 ng·h/mL | 866 ng/mL |
| Cc1c(-c2cc(F)c(N)cc2F)ccn2c(=O)c(C(=O)[O-])cc(C3CC3)c12.[K+] [Ex. 28 K salt] | 1.07 h | 1650 ng·h/mL | 2850 ng/mL | 43% | 3.33 h | 710 ng·h/mL | 227 ng/mL |
| Cc1c(-c2ccc(O)cc2)ccn2c(=O)c(C(=O)[O-])cc(C3CC3)c12.[K+] [Ex. 46 K salt] | 1.07 h | 474 ng·h/mL | 1060 ng/mL | 82.1% | 4.16 h | 389 ng·h/mL | 156 ng/mL |
